# Source: ChEMBL document CHEMBL1201862, “PubChem BioAssay data set” (2004)
#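 Method: 48-hour compound exposure of cells in 96-well plates, five concentrations, linear interpolation of endpoints. At the GI50, growth is halved.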 Calls of active or inactive are those of the source. No stated cut-off is given here; in the data, active = GI50 up to about 1.1 µM and inactive = higher.
# What was measured:
# Assay in all cases: DTP human tumour cell line panel, 48 h
# SF-295 = tested on: SF-295
# SK-MEL-2 = tested on: SK-MEL-2
# OVCAR-3 = tested on: OVCAR-3
# NCI-H23 = tested on: NCI-H23
# MCF7 = tested on: MCF7
# M14 = tested on: M14
# MDA-MB-231 = tested on: MDA-MB-231
# Hs-578T = tested on: Hs-578T
# ACHN = tested on: ACHN
# A498 = tested on: A498
# OVCAR-5 = tested on: OVCAR-5
# SK-MEL-5 = tested on: SK-MEL-5
# HT-29 = tested on: HT-29
# OVCAR-8 = tested on: OVCAR-8
# T47D = tested on: T47D
# TK-10 = tested on: TK-10
# CCRF-CEM = tested on: CCRF-CEM
# OVCAR-4 = tested on: OVCAR-4
# HOP-92 = tested on: HOP-92
Structure (SMILES),GI50 (SF-295),GI50 (SK-MEL-2),GI50 (OVCAR-3),GI50 (NCI-H23),GI50 (MCF7),GI50 (M14),GI50 (MDA-MB-231),GI50 (Hs-578T),GI50 (ACHN),GI50 (A498),GI50 (OVCAR-5),GI50 (SK-MEL-5),GI50 (HT-29),GI50 (OVCAR-8),GI50 (T47D),GI50 (TK-10),GI50 (CCRF-CEM),GI50 (OVCAR-4),GI50 (HOP-92)
N[C@H]1CCC[C@@H](O)C1O (some centres not stated),> 100 µM (inactive),> 100 µM (inactive),> 100 µM (inactive),> 100 µM (inactive),> 100 µM (inactive),> 100 µM (inactive),> 100 µM (inactive),> 100 µM (inactive),> 100 µM (inactive),> 100 µM (inactive),> 100 µM (inactive),> 100 µM (inactive),> 100 µM (inactive),> 100 µM (inactive),> 100 µM (inactive),,,,
Cc1nn(C(=O)c2ccc(Cl)cc2)c2c1C(c1ccccc1[N+](=O)[O-])SC(=N)N2 (configuration not stated),> 10 µM (inactive),> 10 µM (inactive),> 10 µM (inactive),> 10 µM (inactive),> 10 µM (inactive),> 10 µM (inactive),> 10 µM (inactive),> 10 µM (inactive),> 10 µM (inactive),,> 10 µM (inactive),> 10 µM (inactive),> 10 µM (inactive),> 10 µM (inactive),> 10 µM (inactive),> 10 µM (inactive),> 10 µM (inactive),> 10 µM (inactive),> 10 µM (inactive)
CC(C)(C)OC(=O)CCC1NC(=O)[C@@H]2Cc3c([nH]c4ccccc34)C(C3CCCCC3)N2C1=O (some centres not stated),23.1 µM (inactive),22.8 µM (inactive),26.2 µM (inactive),39.6 µM (inactive),26.7 µM (inactive),27.4 µM (inactive),22 µM (inactive),20.8 µM (inactive),33.3 µM (inactive),60.5 µM (inactive),53.2 µM (inactive),31 µM (inactive),18.6 µM (inactive),50.4 µM (inactive),27.9 µM (inactive),34.7 µM (inactive),,28.8 µM (inactive),33.2 µM (inactive)
CSc1ccc(/C=C2\N=C(c3ccccc3)N(c3nc4cc(C)c(C)cc4s3)C2=O)cc1,34.1 µM (inactive),16 µM (inactive),22.8 µM (inactive),,15.3 µM (inactive),26.4 µM (inactive),24.6 µM (inactive),28.4 µM (inactive),24.9 µM (inactive),,26.2 µM (inactive),21.4 µM (inactive),22.2 µM (inactive),20.3 µM (inactive),44.8 µM (inactive),94.4 µM (inactive),9.35 µM (inactive),26.5 µM (inactive),13.5 µM (inactive)
CCN(CC)CCCC(C)Nc1cc(/C=C/c2ccc(Cl)cc2)nc2cc(N(C)C)ccc12 (configuration not stated),1.9 µM (inactive),,1.7 µM (inactive),1.76 µM (inactive),1.34 µM (inactive),1.61 µM (inactive),1.22 µM (inactive),2.37 µM (inactive),2.11 µM (inactive),1.69 µM (inactive),1.94 µM (inactive),2.01 µM (inactive),1.34 µM (inactive),1.86 µM (inactive),1.66 µM (inactive),1.91 µM (inactive),1.21 µM (inactive),,1.74 µM (inactive)
O=S(=O)(c1ccccc1)[C@@H]1[C@H]2C=C[C@](CS)(O2)[C@H]1S(=O)(=O)c1ccccc1,> 100 µM (inactive),,19.1 µM (inactive),79.6 µM (inactive),62.5 µM (inactive),> 100 µM (inactive),> 100 µM (inactive),> 100 µM (inactive),76.9 µM (inactive),> 100 µM (inactive),> 100 µM (inactive),> 100 µM (inactive),> 100 µM (inactive),50.1 µM (inactive),84.3 µM (inactive),> 100 µM (inactive),2.46 µM (inactive),42.1 µM (inactive),> 100 µM (inactive)
O=C1NC(c2cccc(OCc3ccccc3)c2)Nc2ccccc21 (configuration not stated),0.114 µM (active),1.67 µM (inactive),0.1 µM (active),0.424 µM (active),0.034 µM (active),0.181 µM (active),0.251 µM (active),0.241 µM (active),0.442 µM (active),0.259 µM (active),0.374 µM (active),0.0326 µM (active),0.12 µM (active),0.315 µM (active),19.1 µM (inactive),0.603 µM (active),0.0479 µM (active),13.7 µM (inactive),
C=CCOC(=O)C1C2OC3(C(C(=O)OC)=C2C(=O)OC)c2ccccc2CCC13 (configuration not stated),> 10 µM (inactive),> 10 µM (inactive),> 10 µM (inactive),> 10 µM (inactive),> 10 µM (inactive),> 10 µM (inactive),> 10 µM (inactive),> 10 µM (inactive),> 10 µM (inactive),> 10 µM (inactive),> 10 µM (inactive),> 10 µM (inactive),> 10 µM (inactive),> 10 µM (inactive),> 10 µM (inactive),> 10 µM (inactive),> 10 µM (inactive),> 10 µM (inactive),
OCCNc1ncnc2[nH]cnc12,> 100 µM (inactive),> 100 µM (inactive),> 100 µM (inactive),> 100 µM (inactive),> 100 µM (inactive),> 100 µM (inactive),> 100 µM (inactive),> 100 µM (inactive),> 100 µM (inactive),> 100 µM (inactive),> 100 µM (inactive),> 100 µM (inactive),> 100 µM (inactive),> 100 µM (inactive),> 100 µM (inactive),> 100 µM (inactive),,> 100 µM (inactive),> 100 µM (inactive)
C=CC(=C)CCC(Br)C(C)(C)Br (configuration not stated),> 100 µM (inactive),> 100 µM (inactive),> 100 µM (inactive),> 100 µM (inactive),35.1 µM (inactive),75.9 µM (inactive),4.51 µM (inactive),> 100 µM (inactive),> 100 µM (inactive),,> 100 µM (inactive),> 100 µM (inactive),> 100 µM (inactive),> 100 µM (inactive),66.2 µM (inactive),> 100 µM (inactive),22.2 µM (inactive),> 100 µM (inactive),91.2 µM (inactive)
CN(C)Cc1cc(/N=N/c2ccc(Cl)cc2)cc(CN(C)C)c1O,11.8 µM (inactive),12.9 µM (inactive),1.84 µM (inactive),21.2 µM (inactive),7.87 µM (inactive),14.5 µM (inactive),7.71 µM (inactive),11.3 µM (inactive),6.43 µM (inactive),14.7 µM (inactive),,8.79 µM (inactive),6.62 µM (inactive),3.75 µM (inactive),10.5 µM (inactive),5.94 µM (inactive),2.1 µM (inactive),,2.45 µM (inactive)
